Test results published in BindingDB's records for PubMed 32492596 (Tsinghua University, 2020).

Columns and labels:
[1] = molecular target: Stromal cell-derived factor 1 (Homo sapiens, UniProt P48061); experiment: Inhibition of SDF-1 alpha induced cell migration in human SUP-T1 cells pre-incubated for 30 mins followed by SDF-1 alpha addition measured after 3 hrs by cell Titer-96 reagent based analysis
[2] = molecular target: C-X-C chemokine receptor type 4 (Homo sapiens, UniProt P61073); experiment: Binding affinity to CXCR4 (unknown origin) expressed in CHO cells incubated for 40 mins by competitive binding assay method
Sequence of C-X-C chemokine receptor type 4 (P61073 whole entry): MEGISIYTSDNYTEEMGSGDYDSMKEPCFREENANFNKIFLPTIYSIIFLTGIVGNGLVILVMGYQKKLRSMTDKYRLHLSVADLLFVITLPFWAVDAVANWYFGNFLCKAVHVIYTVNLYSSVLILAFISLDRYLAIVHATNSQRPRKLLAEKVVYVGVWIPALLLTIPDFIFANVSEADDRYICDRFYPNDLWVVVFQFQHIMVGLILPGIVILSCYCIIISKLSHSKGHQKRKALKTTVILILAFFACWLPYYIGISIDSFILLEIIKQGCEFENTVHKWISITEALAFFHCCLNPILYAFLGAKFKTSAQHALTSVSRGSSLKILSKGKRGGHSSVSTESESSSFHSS

Sequence of Stromal cell-derived factor 1 (P48061 whole entry): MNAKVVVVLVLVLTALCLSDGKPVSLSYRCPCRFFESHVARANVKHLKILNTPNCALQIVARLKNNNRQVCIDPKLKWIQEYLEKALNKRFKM

CCOC(=O)C1CNc2c(OC)cc(Cc3cnc(N)nc3N)c(OC)c2C1 (stereo not given) showed an IC50 [1] of 621 nM.

With COc1cc(Cc2cnc(N)nc2N)cc2c1N(CCOC(C)=O)CCC2C (stereo not given) the IC50 [2] was 68 nM.

In the case of COc1cc(Cc2cnc(N)nc2N)cc2c(C)cc(C)nc12, the IC50 [2] is reported as 122 nM.

Compound Cc1ccnc2c(N)cc(Cc3cnc(N)nc3N)cc12 has an IC50 [2] of 68 nM.

For Nc1ncc(Cc2ccc3ncccc3c2)c(N)n1, the IC50 [2] was 119 nM.
